Patent publication US20260325464A1, “COMPOSITIONS FOR MODULATING THE EXPRESSION OF AQUAPORINS IN NEURODEGENERATIVE DISORDERS” (priority 2023, published 2026)
Marks after values point to notes of the source that are not given here.

Tests used:
Assay type in all cases: in vivo, rat
[1] = tested on: Parkinson's disease; experiment: Open field test in rats with reserpine-induced Parkinson's disease; conditions: 25 mg/kg, p.o. + Reserpine (4 mg/kg, s.c.); open field; Mean ± SEM, n = 6
From the text: (§1) The induction of Parkinson's disease and measurement of other parameters were done as per the reported protocol (Santos et al., Cognitive, motor and tyrosine hydroxylase temporal impairment in a model of parkinsonism induced by reserpine. Behav Brain Res. 2013; 253:68-77 and Shishehbore et al. A novel kinetic spectrophotometric method for the determination of dopamine in biological and pharmaceutical samples. J Chem. 2013; 2013:1-6). Induction of Parkinson's disease was done by administering Resperine, which inhibits the monoamine vesicular transporters, thus decreasing the levels of monoamine neurotransmitters in the brain. Following pretreatment for 14 days with Gingerenone A, the rat groups received subcutaneous injections of reserpine (4 mg/kg) for the final five days of the treatment regimen. Resperine (5 mg) was dissolved in 1 ml of 1% acetic acid and then diluted tenfold with distilled water to achieve a final concentration of 500 μg/ml. The normal control group received saline with 1% acetic acid […], administered from day 10 to day 14. Thirty minutes following the administration of reserpine on the 14th day, behavioural assessments were conducted using the Open Field test, Y Maze, and Catalepsy tests to evaluate changes. Rats administered with Carbidopa, a known drug for the management of Parkinson's disease was also used for comparison. Upon completion of the study, brains were harvested for biochemical analyses and histopathological studies. The experimental group is depicted in table 10.
Open filed test—The test was conducted as per protocol described by Saleem et al., Pharmacological Potential of the Standardized Methanolic Extract of Prunus armeniaca L. in the Haloperidol-Induced Parkinsonism Rat Model. Evid Based Complement Alternat Med. 2022:29; 3697522. doi: 10.1155/2022/3697522. This test was conducted to assess the locomotor and exploratory behaviors of the experimental rats. A square-shaped wooden box measuring 100 cm in width, 100 cm in […], and 45 cm in height was constructed using plywood material, painted white, with a black-lined floor divided into 25 blocks. The rats were placed in the center of the field for a duration of 5 minutes and allowed to explore the box freely. The number of squares crossed, both centrally and horizontally, along with the total number of crossings, instances of defecation, freezing behavior, and postures were recorded during this period. Normal animals readily and quickly acclimate to the chamber and try to explore the center area of the squares.

[2] = tested on: Parkinson's disease; experiment: Y-maze test in rats with reserpine-induced Parkinson's disease; conditions: 25 mg/kg, p.o. + Reserpine (4 mg/kg, s.c.); Y maze; Mean ± SEM, n = 6
From the text: as §1
Y-maze test—In the Y-maze test, spontaneous alterations serve as an indicator of working short-term memory.
The maze consisted of a triangular central area with three equilateral arms labeled A, B, and C, each measuring 35 cm in length, 25 cm in height, and 10 cm in width. During the test, each rat was placed in the central area, facing one of the arms. An entry was scored when all four paws of the rat entered an arm. Spontaneous alterations in behavior were defined as consecutive entries into different arms (e.g., ABC, BCA, or CAB, but not CAC). The maximum number of spontaneous alterations ([…]) and the percentage of spontaneous alterations (actual number of alterations divided by the maximum alterations, multiplied by 100) were calculated for each rat (Kraeuter et al., The Y-Maze for Assessment of Spatial Working and Reference Memory in Mice. Methods Mol Biol. 2019; 1916:105-111).

[3] = tested on: Parkinson's disease; experiment: Catalepsy test in rats with reserpine-induced Parkinson's disease; design: catalepsy score at 30 min / catalepsy score at 60 min / catalepsy score at 120 min: unit not given here; conditions: 25 mg/kg, p.o. + Reserpine (4 mg/kg, s.c.), Mean ± SEM, n = 6
From the text: as §1
NeuroMol Med. 202022(2):314-330. Catalepsy in rats' manifests as an unresponsiveness to external stimuli accompanied by muscle rigidity. During the catalepsy test, rats were positioned on a wooden bar elevated 3-9 cm above the surface, with their forelimbs resting on it after administration of reserpine. The time taken for the rats to correct their posture was recorded as an indicator of catalepsy. Catalepsy ceased either when the rats climbed up the bar or when their forelimbs touched the floor. Observations were made at 30, 60, and 120 minutes after administration. All assessments were conducted in a quiet environment at a temperature of 23-25 degrees Celsius, with a maximum observation time of 5 minutes per trial.

[4] = tested on: Apolipoprotein E; experiment: Apolipoprotein E level in plasma (ELISA), AlCl3 Alzheimer's model; conditions: 5 mg/kg, p.o. + AlCl3 (100 mg/kg, i.p.); plasma; Mean ± SEM, n = 6
From the text: (§2) The levels of Tau, β-amyloid (1-42) and Apolipoprotein E were estimated. using ELISA kit (Krishgen Biosystems, India). All the protein biomarkers of AD were elevated in the AD control group.

[5] = tested on: Alzheimer's disease; experiment: Elevated plus maze (EPM) test in rats with AlCl3-induced Alzheimer's disease; conditions: 5 mg/kg, p.o. + AlCl3 (100 mg/kg, i.p.), Mean ± SEM, n = 6
Description: Elevated plus maze (EPM)—Elevated plus maze (EPM)—This test was performed as per reported protocol (Bhuvanendran et al., Amelioration of cognitive deficit by Embelin in a Scopolamine-induced Alzheimer's disease-like condition in a rat model. Front Pharmacol. 2018:9(6):1-12 and Biradar et al., (2020) Experimental validation and network pharmacology evaluation to decipher the mechanism of action of Erythrina variegata L. bark against scopolamine-induced memory impairment in rats. Adv Tradit Med. 2020:26:1-4). EPM contains 2 closed and 2 open arms (four arms; equal dimensions of 50×10 cm). These 4 arms connect at central with a 10×10 cm square gap as an initial point. The transfer latency (TL) was recorded via stopwatch by keeping rats independently toward one side of the open arm. The EPM TL cut-off was set to 60 s throughout the study. […] Index of memory improvement is measured as a drop of transfer Latency (TL) by test drug.
The elevated plus maze is a test that is widely used to assess the anti-anxiety effects of test substances. As the test measures open arm activity, an increase in open arm activity (duration and/or entries) reflects anti-anxiety behaviour (Walf et al., The use of the elevated plus maze as an assay of anxiety-related behavior in rodents, Nat Protoc. 2007; 2(2): 322-328). In the present study, inducing Alzheimer's in the animals increased their anxiety which was reduced by the administration on Gingerenone A (Table 3).

[6] = tested on: IL-1β; experiment: Inflammatory marker IL-1β (ELISA), AlCl3 Alzheimer's model; conditions: 5 mg/kg, p.o. + AlCl3 (100 mg/kg, i.p.); n = 6
From the text: (§3) The inflammatory markers Fibrinogen, IL-1β were estimated using ELISA kit (Krishgen Biosystems, India).

[7] = tested on: β-amyloid (1-42); experiment: β-amyloid (1-42) level in plasma (ELISA), AlCl3 Alzheimer's model; conditions: 5 mg/kg, p.o. + AlCl3 (100 mg/kg, i.p.); plasma; Mean ± SEM, n = 6
From the text: as §2

[8] = tested on: Alzheimer's disease; experiment: Morris water maze (MWM) test in rats with AlCl3-induced Alzheimer's disease; conditions: 5 mg/kg, p.o. + AlCl3 (100 mg/kg, i.p.); MWM at 17th day; Mean ± SEM, n = 6
Description: Morris water maze (MWM)—This test was performed as per protocol established by Ishola et al., Protective role of Spondiasmombin leaf and Cola acuminata seed extracts against scopolamine-induced cognitive dysfunction. Alexandria J Med. 2018; 54(1):27-39. MWM is a round water tank “diameter: 110 cm and height: 60 cm” consisting of a white surface and that is filled using opaque water (Temp. 26±2° C.) to a distance (depth) of 30 cm. The MWM tank circle is divided into 4 equal quadrants [North Quadrant 1, East Quadrant 2, West Quadrant 3, and South Quadrant 4]. Further, it consists of a 10 cm diameter platform in a constant position. Index of memory improvement is measured by the Escape Latency Time (ELT)—which is the time the animal takes to find the platform.
The MWM plays an important role in the testing of learning and memory in rodent models of Alzheimer's Disease. It is used to test hippocampal-dependent learning, including acquisition of spatial memory and long-term spatial memory (Bromley-Brits et al., Morris water maze test for learning and memory deficits in Alzheimer's disease model mice, J Vis Exp., 2011 Jul. 20:(53):2920). In this study, learning was impaired in the Alzheimer's group.

[9] = tested on: Fibrinogen; experiment: Inflammatory marker fibrinogen (ELISA), AlCl3 Alzheimer's model; conditions: 5 mg/kg, p.o. + AlCl3 (100 mg/kg, i.p.); Mean ± SEM, n = 6
From the text: as §3

SMILES	Freezing [1]	Number of central explorations [1]	Number of squares crossed [1]	No of arm entries [2]	Spontaneous alterations (%) [2]	catalepsy score at 30 min ([3]; 30 min)	catalepsy score at 60 min ([3]; 60 min)	catalepsy score at 120 min ([3]; 120 min)	Apolipoprotein E [4]	EPM at 16th day Transfer Latency ([5]; 16th day)	EPM at 17th day Transfer Latency ([5]; 17th day)	IL-1β [6]	β-amyloid [7]	Escape Latency Time [8]	Fibrinogen [9]
C[C@@](Cc1ccc(O)c(O)c1)(NN)C(=O)O [Carbidopa, reference compound]	9.63 ± 0.60 s	20.25 ± 1.03	31.80 ± 3.18	12.58 ± 1.04	27.31 ± 1.56 %	1.52 ± 0.42	1.60 ± 0.70	1.45 ± 0.70	–	–	–	–	–	–	–
COc1cc2c(cc1OC)C(=O)C(CC1CCN(Cc3ccccc3)CC1)C2 (stereo not drawn) [Donepezil, reference compound]	–	–	–	–	–	–	–	–	6.96 ± 0.065 ng/mL	18.57 ± 0.68 s	18.22 ± 0.92 s	62.16** pg/ml	8.02 ± 0.043 pg/mL	26.96 ± 2.58 s	16.77 ± 0.053 ng/mL
